This passage reports melting point results from patent US8415336B2, “Cyclic (aza)indolizinecarboxamides, their preparation and their use as pharmaceuticals” (Sanofi, priority 2009, dated 2013).

As a reminder, the melting point is the temperature of the solid-liquid transition.

Structures can show the parent of a compound that is named as a salt.

Molecule `Cc1c(F)cccc1Cc1c(-c2ccccc2)c2ccccn2c1C(=O)N1CCNCC1` (as salt: hydrochloride) [Example 1, [2-(3-Fluoro-2-methyl-benzyl)-1-phenyl-indolizin-3-yl]-piperazin-1-yl-methanone] came in with a melting point of 263 °C.

Turning to `Cc1c(F)cccc1Cc1c(C2CCCCC2)c2ccccn2c1C(=O)N1CCNCC1` (as salt: hydrochloride) [Example 2, [1-Cyclohexyl-2-(3-fluoro-2-methyl-benzyl)-indolizin-3-yl]-piperazin-1-yl-methanone], the melting point is 317 to 318 °C.

`O=C(c1c(Cc2c(F)cccc2Cl)c(-c2ccccc2)c2ccccn12)N1CCNCC1` (as salt: hydrochloride) [Example 3, [2-(2-Chloro-6-fluoro-benzyl)-1-phenyl-indolizin-3-yl]-piperazin-1-yl-methanone]: the melting point was 304 °C.

As to `CNC(=O)c1ccn2c(C(=O)N3CCNCC3)c(Cc3cccc(F)c3C)c(-c3ccccc3)c2c1` (as salt: hydrochloride) [Example 4, 2-(3-Fluoro-2-methyl-benzyl)-1-phenyl-3-(piperazine-1-carbonyl)-indolizine-7-carboxylic acid methylamide], the melting point was determined as 205 °C.

`Cc1c(F)cccc1Cc1c(-c2ccccc2)c2ccccn2c1C(=O)N1CCN[C@@H](CCO)C1` (as salt: hydrochloride) [Example 5, [2-(3-Fluoro-2-methyl-benzyl)-1-phenyl-indolizin-3-yl]-[(S)-3-(2-hydroxy-ethyl)-piperazin-1]-yl-methanone] came in with a melting point of 202 °C.

In turn, `Cc1c(F)cccc1Cc1c(-c2ccccc2)c2ccccn2c1C(=O)N1CCN[C@@H](CC(=O)NCC2CCOCC2)C1` (as salt: hydrochloride) [Example 6, 2-{(S)-4-[2-(3-Fluoro-2-methyl-benzyl)-1-phenyl-indolizine-3-carbonyl]-piperazin-2-yl}-N-(tetrahydropyran-4-ylmethyl)-acetamide] registered a melting point of 147 °C.

For the molecule `Cc1c(F)cccc1Cc1c(-c2ccccc2)c2ccccn2c1C(=O)N1CCN[C@@H](CC(=O)NCC(C)(C)C(N)=O)C1` (as salt: hydrochloride) [Example 7, 3-(2-{(S)-4-[2-(3-Fluoro-2-methyl-benzyl)-1-phenyl-indolizine-3-carbonyl]-piperazin-2-yl}-acetylamino)-2,2-dimethyl-propionamide], the melting point was in the range of 174 to 176 °C.

Molecule `CNC(=O)c1cnn2c(C(=O)N3CCNCC3)c(Cc3cccc(F)c3C)c(-c3ccccc3)c2c1` (as salt: hydrochloride) [Example 8, 6-(3-Fluoro-2-methyl-benzyl)-5-phenyl-7-(piperazine-1-carbonyl)-pyrrolo[1,2-b]pyridazin-3-carboxylic acid methylamide] had a melting point of 208 to 210 °C.

`Cc1c(F)cccc1Cc1c(-c2ccccc2)c2cccnn2c1C(=O)N1CCNCC1` (as salt: hydrochloride) [Example 9, [6-(3-Fluoro-2-methyl-benzyl)-5-phenyl-pyrrolo[1,2-b]pyridazin-7-yl]-piperazin-1-yl-methanone] returned a melting point of 140 to 142 °C.

In turn, `Cc1c(F)cccc1Cc1c(-c2ccccc2)c2cc(O)cnn2c1C(=O)N1CCNCC1` (as salt: hydrochloride) [Example 10, [6-(3-Fluoro-2-methyl-benzyl)-3-hydroxy-5-phenyl-pyrrolo[1,2-b]pyridazin-7-yl]-piperazin-1-yl-methanone] displayed a melting point of 206 to 208 °C.

`CNC(=O)c1ccc2c(-c3ccccc3)c(Cc3cccc(F)c3C)c(C(=O)N3CCNCC3)n2c1` (as salt: hydrochloride) [Example 13, 2-(3-Fluoro-2-methyl-benzyl)-1-phenyl-3-(piperazine-1-carbonyl)-indolizine-6-carboxylic acid methylamide] showed a melting point of 273 °C.

In turn, `Cc1cccc(C)c1Cc1c(-c2ccccc2)c2ccccn2c1C(=O)N1CCN[C@H](C)C1` (as salt: hydrochloride) [Example 17, [2-(2,6-Dimethyl-benzyl)-1-phenyl-indolizin-3-yl)-((R)-3-methyl-piperazin-1-yl)-methanone] showed a melting point of 302 °C.

`Cc1c(F)cccc1Cc1c(-c2ccccc2)c2ccccn2c1C(=O)N1CCN[C@@H](CO)C1` (as salt: hydrochloride) [Example 22] gave a melting point of 180 to 181 °C.

`CNC(=O)CC[C@H]1CN(C(=O)c2c(Cc3cccc(F)c3C)c(-c3ccccc3)c3ccccn23)CCN1` (as salt: hydrochloride) [Example 26]: the melting point lay within 127 to 129 °C.

The molecule `COC(=O)CCNC(=O)C[C@H]1CN(C(=O)c2c(Cc3cccc(F)c3C)c(-c3ccccc3)c3ccccn23)CCN1` (as salt: hydrochloride) [Example 30] yielded a melting point of 112 to 113 °C.

For the molecule `Cc1c(F)cccc1Cc1c(-c2ccccc2)c2ccccn2c1C(=O)N1CCN[C@@H](CC(=O)NCCS(C)(=O)=O)C1` (as salt: hydrochloride) [Example 31], the melting point is 166 to 168 °C.

`Cc1c(F)cccc1Cc1c(-c2ccccc2)c2ccccn2c1C(=O)N1CCN[C@@H](CC(=O)NCc2cccnc2)C1` (as salt: hydrochloride) [Example 32] returned a melting point of 181 to 182 °C.

Consider `COc1ccn2c(C(=O)N3CCNCC3)c(Cc3cccc(F)c3C)c(-c3ccccc3)c2c1` (as salt: hydrochloride) [Example 35, [2-(3-fluoro-2-methyl-benzyl)-7-methoxy-1-phenyl-indolizin-3-yl]-piperazin-1-yl-methanone], for which the melting point is 124 to 125 °C.

`Cc1c(F)cccc1Cc1c(-c2ccccc2)c2cc(C(=O)N3CCCCC3)cnn2c1C(=O)N1CCN[C@@H](CC(=O)NCCO)C1` (as salt: hydrochloride) [Example 39]: the melting point fell in the range of 164 to 166 °C.

For the molecule `CCNC(=O)c1cnn2c(C(=O)N3CCN[C@@H](CC(=O)NCCOC)C3)c(Cc3cccc(F)c3C)c(-c3ccccc3)c2c1` (as salt: hydrochloride) [Example 42, 6-(3-fluoro-2-methyl-benzyl)-7-{(S)-3-[(2-methoxy-ethylcarbamoyl)-methyl]-piperazine-1-carbonyl}-5-phenyl-pyrrolo[1,2-b]pyridazine-3-carboxylic acid ethylamide], the melting point was 151 to 153 °C.

Regarding `COCCN(C)C(=O)C[C@H]1CN(C(=O)c2c(Cc3cccc(F)c3C)c(-c3ccccc3)c3cc(C(=O)N(C)C)cnn23)CCN1` (as salt: hydrochloride) [Example 46], the melting point lay in the range of 130 to 132 °C.
